Where two headings read alike, the source gives them in different places.

The Cmax is the highest concentration seen after dosing. In general, Tmax refers to the time from dosing to the highest level. For orientation: AUC(0-t) means exposure summed from dosing to a finite time, without extrapolation to infinity.

The conditions of data set [1]: Indian origin, rhesus monkey, in vivo, po.
Details of data set [2]: method as in Ibarra et al. Eur J Pharm Sci. 2012;46(5):516–21. To be noted: human historical data, LPV-RTV; ref Ibarra et al. Eur J Pharm Sci. 2012;46(5):516–21; cited from earlier work.
Data set [3] in a line: in vivo. To be noted: Indian origin, rhesus monkey, po; for Cmax: 50 mg/kg.
A short description of data set [4]: Pharmacokinetic study, single dose by gavage, plasma HPLC-MS/MS.
For data set [5] the following is noted: human historical data, cited from earlier work.
For data set [6], the system named is P. knowlesi asexual blood stage parasites. More on the design: method as in PMID 21486958. To be noted: rhesus macaques; cited from earlier work.
The mark [7] stands for this setting: rhesus JMF, dosing regimen LPV-RTV+TMP-SMX, sedated.
[8] abbreviates: rhesus JRH, dosing regimen LPV-RTV+TMP-SMX, awake.
Setting [9] is: rhesus LK8A, dosing regimen LPV-RTV alone, sedated.
Setting [10] is: TMP-SMX, ref Patel et al. 1980, Dudley et al. 1984.

For `Cc1cccc(C)c1OCC(=O)N[C@@H](Cc1ccccc1)[C@@H](O)C[C@H](Cc1ccccc1)NC(=O)[C@H](C(C)C)N1CCCNC1=O` [Lopinavir], the Cmax in data set [1] was found to be 10900 ng/mL. In data set [2], the “AUC0–24” value was 95000 ng·h/mL, the highest concentration (Cmax) was 7060 ng/mL, the T1/2 is 5.2 h and the Tmax was 3 to 6 h. In data set [3] (in vivo), the AUC(0-t) came out at 171000 ng·h/mL and the concentration peaked (Cmax) at 10300 ng/mL.
In the case of `CC(C)c1nc(CN(C)C(=O)N[C@H](C(=O)N[C@@H](Cc2ccccc2)C[C@H](O)[C@H](Cc2ccccc2)NC(=O)OCc2cncs2)C(C)C)cs1` [Ritonavir], the “AUC0–24” value is 4310 ng·h/mL in data set [2], 11100 ng·h/mL in data set [4] (setting [7]), 23200 ng·h/mL in data set [4] (setting [8]) and 37800 ng·h/mL in data set [4] (setting [9]). For the same compound, the T1/2 in data set [2] was 5.12 h. The Tmax in data set [2] is 3 to 6 h; in data set [4] (setting [7]), 24.0 h; in data set [4] (setting [8]), 6.0 h; in data set [4] (setting [9]), 8.0 h. Further, the concentration in data set [3] (plasma) peaked (Cmax) at 3600 ng/mL.
In data set [1], `COc1cc(Cc2cnc(N)nc2N)cc(OC)c1OC` [Trimethoprim] had a Cmax of 130 ng/mL. The AUC(0-t) in data set [3] (in vivo) turned out to be 1730 ng·h/mL. In data set [5] (setting [10]), the T1/2 is 8 to 10 h and the Tmax is 1 to 4 h. In addition, in data set [5] (dose 5 mg/kg trimethoprim and 25 mg/kg sulfamethoxazole iv, ref Dudley et al. Antimicrob Agents Chemother 1984;26:811–814), the “AUC0–24” value was 32.6 ^2 µg*hr/mL. Further, in data set [5] (dose 160 mg trimethoprim and 800 mg sulfamethoxazole, ref Patel et al. Clin Pharmacokinet 1980;5:405–423), the Cmax was 1–2 ^1 µg/mL.
Take `CC(C)(C)NC(=O)[C@@H]1CN(Cc2cccnc2)CCN1C[C@@H](O)C[C@@H](Cc1ccccc1)C(=O)N[C@H]1c2ccccc2C[C@H]1O` [indinavir]: the “Killing activity against P. knowlesi” value in data set [6] is recorded as “exhibited killing activity”.

These data come from PMC4079689, “HIV Treatments Reduce Malaria Liver Stage Burden in a Non-Human Primate Model of Malaria Infection at Clinically Relevant Concentrations In Vivo” (PLoS ONE, 2014).
